Measurements taken from the NIST ThermoML archive (doi:10.1016/j.fluid.2014.01.019).

Experiment: xn = mol fraction of the nth substance listed
Details: 101 kPa, Liquid; for mass density: Vibrating tube method; for speed of sound: Frequency=2 MHz, Linear variable-path acoustic interferometer

Cc1ccccc1[N+](=O)[O-] [2-nitrotoluene] + OCc1ccccc1
Details	mass density, 298.15 K [kg/m3]	mass density, 303.15 K [kg/m3]	mass density, 308.15 K [kg/m3]	mass density, 313.15 K [kg/m3]	speed of sound, 303.15 K [m/s]	speed of sound, 313.15 K [m/s]
x2 = 0.0534	1153.93	1148.05	1144.09	1139.21	1444	1406
x2 = 0.1227	1146.45	1140.66	1136.63	1131.74	1449	1411
x2 = 0.1912	1138.96	1133.26	1129.16	1124.32	1454	1418
x2 = 0.2352	1134.11	1128.45	1124.35	1119.53	1458	1421
x2 = 0.2997	1126.89	1121.35	1117.19	1112.42	1462	1427
x2 = 0.3713	1118.76	1113.36	1109.17	1104.47	1467	1432
x2 = 0.4567	1108.91	1103.69	1099.48	1094.85	1474	1440
x2 = 0.5416	1098.93	1093.89	1089.68	1085.15	1480	1447
x2 = 0.6038	1091.49	1086.61	1082.42	1077.95	1485	1452
x2 = 0.6536	1085.47	1080.69	1076.51	1072.12	1489	1457
x2 = 0.7025	1079.47	1074.82	1070.68	1066.34	1493	1461
x2 = 0.743	1074.47	1069.91	1065.79	1061.49	1495	1464
x2 = 0.8128	1065.71	1061.34	1057.26	1053.06	1501	1471
x2 = 0.8551	1060.33	1056.07	1052.04	1047.91	1505	1474
x2 = 0.9351	1050	1045.96	1042.02	1038.01	1510	1481
